These are literature values, as cited in EP4778926A1, “DEUTERATED DIARYL GLYCOLURIL TETRAMER COMPOUND AND USE THEREOF” (Shanghai Institute of Organic Chemistry, Chinese Academy of …, priority 2023, dated 2025).

Like-named read-outs stand apart in the source and are kept apart here.

The conditions of data set [1]: for TOF→0.9 time, Average value: rats, Vecuronium Bromide (0.7 mg/kg), from literature (Liu et al.).
The conditions of data set [2]: for TOF→0.9 time, Average time: rats, Rocuronium bromide (3.5 mg/kg), from literature (Liu et al.).
For data set [3] the following is noted: rats; Cisatracurium Besylate (0.6 mg/kg); neostigmine 0.24 mg/kg; from literature (Liu et al.).
For data set [4] the following is noted: rats; pancuronium bromide (0.5 mg/kg); neostigmine 0.24 mg/kg; from literature (Liu et al.).

For the molecule `O=C([O-])CCSC[C@H]1O[C@@H]2O[C@H]3[C@H](O)[C@@H](O)[C@@H](O[C@H]4[C@H](O)[C@@H](O)[C@@H](O[C@H]5[C@H](O)[C@@H](O)[C@@H](O[C@H]6[C@H](O)[C@@H](O)[C@@H](O[C@H]7[C@H](O)[C@@H](O)[C@@H](O[C@H]8[C@H](O)[C@@H](O)[C@@H](O[C@H]9[C@H](O)C(O)[C@@H](O[C@H]1[C@H](O)[C@H]2O)O[C@@H]9CSCCC(=O)[O-])O[C@@H]8CSCCC(=O)[O-])O[C@@H]7CSCCC(=O)[O-])O[C@@H]6CSCCC(=O)[O-])O[C@@H]5CSCCC(=O)[O-])O[C@@H]4CSCCC(=O)[O-])O[C@@H]3CSCCC(=O)[O-].[Na+].[Na+].[Na+].[Na+].[Na+].[Na+].[Na+].[Na+]` (some centres unmarked) [Sugammadex Sodium], the “TOF→0.9 time, Average value” in data set [1] (Sugammadex Sodium 25 mg/kg) is listed as 18 s. For the same molecule, the “time that TOF recovered to 0.9” value in data set [1] (vecuronium bromide, sugammadex sodium at the same dose (25 mg/kg), literature data) was 18 s; in data set [2] (rocuronium bromide, sugammadex sodium at the same dose (25 mg/kg), literature data) it was 52 s. The “TOF→0.9 time, Average time” value in data set [2] (Sugammadex Sodium 25 mg/kg) is given as 52 s.
For the molecule `CN(C)C(=O)Oc1cccc([N+](C)(C)C)c1` [neostigmine], the “TOF→0.9 time, Average time” value is on record as 210 s in data set [3] and 363 s in data set [2] (neostigmine 0.24 mg/kg). The “TOF→0.9 time, Average value” in data set [1] (neostigmine 0.24 mg/kg) was 315 s; in data set [4], 1371 s.
